According to PubChem BioAssay (NCI):
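Following 48 hours of exposure in 96-well plates, responses at five concentrations were used to interpolate endpoints linearly. TGI is the concentration that stops growth completely.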

Assays:
Test in all cases: inhibition of tumour cell growth, NCI panel, 48 h
SF-268 CNS = tested on: SF-268 CNS
HL-60(TB) leukemia = tested on: HL-60(TB) leukemia
TK-10 renal = tested on: TK-10 renal
LOX IMVI melanoma = tested on: LOX IMVI melanoma
MOLT-4 leukemia = tested on: MOLT-4 leukemia
PC-3 prostate = tested on: PC-3 prostate
HS 578T breast = tested on: HS 578T breast
NCI-H23 lung = tested on: NCI-H23 lung
IGROV1 ovarian = tested on: IGROV1 ovarian
SK-OV-3 ovarian = tested on: SK-OV-3 ovarian
ACHN renal = tested on: ACHN renal
HCT-15 colon = tested on: HCT-15 colon
M14 melanoma = tested on: M14 melanoma
MDA-MB-435 = tested on: MDA-MB-435
MALME-3M melanoma = tested on: MALME-3M melanoma
OVCAR-4 ovarian = tested on: OVCAR-4 ovarian
SK-MEL-5 melanoma = tested on: SK-MEL-5 melanoma
UACC-257 melanoma = tested on: UACC-257 melanoma
SK-MEL-2 melanoma = tested on: SK-MEL-2 melanoma
HOP-92 NSCLC = tested on: HOP-92 NSCLC
CCRF-CEM leukemia = tested on: CCRF-CEM leukemia
A549 NSCLC = tested on: A549 NSCLC
HCT-116 colon = tested on: HCT-116 colon
NCI-H226 lung = tested on: NCI-H226 lung
SF-539 CNS = tested on: SF-539 CNS
UO-31 renal = tested on: UO-31 renal
U251 CNS = tested on: U251 CNS
HT29 colon = tested on: HT29 colon
786-0 renal = tested on: 786-0 renal
T-47D breast = tested on: T-47D breast
MDA-N = tested on: MDA-N
A498 renal = tested on: A498 renal
OVCAR-3 ovarian = tested on: OVCAR-3 ovarian
MDA-MB-231 breast = tested on: MDA-MB-231 breast
SN12C renal = tested on: SN12C renal
COLO 205 colon = tested on: COLO 205 colon
SNB-19 CNS = tested on: SNB-19 CNS
K-562 leukemia = tested on: K-562 leukemia
NCI/ADR-RES ovarian = tested on: NCI/ADR-RES ovarian
UACC-62 melanoma = tested on: UACC-62 melanoma
CAKI-1 renal = tested on: CAKI-1 renal
EKVX NSCLC = tested on: EKVX NSCLC
KM12 colon = tested on: KM12 colon
NCI-H460 lung = tested on: NCI-H460 lung
BT-549 breast = tested on: BT-549 breast
HCC-2998 colon = tested on: HCC-2998 colon
SK-MEL-28 melanoma = tested on: SK-MEL-28 melanoma
SF-295 CNS = tested on: SF-295 CNS
MCF7 breast = tested on: MCF7 breast
OVCAR-5 ovarian = tested on: OVCAR-5 ovarian
NCI-H522 lung = tested on: NCI-H522 lung
SW-620 colon = tested on: SW-620 colon
DU-145 prostate = tested on: DU-145 prostate
OVCAR-8 ovarian = tested on: OVCAR-8 ovarian
RXF 393 renal = tested on: RXF 393 renal
HOP-62 NSCLC = tested on: HOP-62 NSCLC
SNB-75 CNS = tested on: SNB-75 CNS
RPMI-8226 leukemia = tested on: RPMI-8226 leukemia

`N#Cc1c2c(c(N3CCOCC3)n3c1nc1ccccc13)CCCC2` was tested, and the TGI (SF-268 CNS) was > 100 µM, the TGI (HL-60(TB) leukemia) was 35.5 µM and the TGI (TK-10 renal) was 49.3 µM. For the same compound, the TGI (LOX IMVI melanoma) was 41.1 µM, the TGI (MOLT-4 leukemia) was 41.5 µM and the TGI (PC-3 prostate) was 50.3 µM. The TGI (HS 578T breast) was > 100 µM, the TGI (NCI-H23 lung) was 47.3 µM and the TGI (IGROV1 ovarian) was 34.9 µM. The TGI (SK-OV-3 ovarian) was 67.7 µM, the TGI (ACHN renal) was 31.3 µM and the TGI (HCT-15 colon) was 36.2 µM. It also gave a TGI (M14 melanoma) of 44.4 µM, a TGI (MDA-MB-435) of 39.7 µM and a TGI (MALME-3M melanoma) of 34 µM. The TGI (OVCAR-4 ovarian) was 51.4 µM, the TGI (SK-MEL-5 melanoma) was 37 µM and the TGI (UACC-257 melanoma) was 65.9 µM. The TGI (SK-MEL-2 melanoma) was 31.8 µM, the TGI (HOP-92 NSCLC) was 38.8 µM and the TGI (CCRF-CEM leukemia) was 8.48 µM. For the same compound, the TGI (A549 NSCLC) was 61.7 µM, the TGI (HCT-116 colon) was 31.7 µM and the TGI (NCI-H226 lung) was 32.5 µM. It also gave a TGI (SF-539 CNS) of 39.3 µM, a TGI (UO-31 renal) of 35.4 µM and a TGI (U251 CNS) of 28.3 µM. It also gave a TGI (HT29 colon) of 38.6 µM, a TGI (786-0 renal) of 41.3 µM and a TGI (T-47D breast) of 41.5 µM. For the same compound, the TGI (MDA-N) was 38.7 µM, the TGI (A498 renal) was 34.5 µM and the TGI (OVCAR-3 ovarian) was 36.5 µM. For the same compound, the TGI (MDA-MB-231 breast) was 54.7 µM, the TGI (SN12C renal) was 45.8 µM and the TGI (COLO 205 colon) was 37.5 µM. The TGI (SNB-19 CNS) was 32 µM, the TGI (K-562 leukemia) was > 100 µM and the TGI (NCI/ADR-RES ovarian) was 43.2 µM. The TGI (UACC-62 melanoma) was 55.5 µM, the TGI (CAKI-1 renal) was 37.9 µM and the TGI (EKVX NSCLC) was 35.9 µM. For the same compound, the TGI (KM12 colon) was > 100 µM, the TGI (NCI-H460 lung) was 56.4 µM and the TGI (BT-549 breast) was > 100 µM. For the same compound, the TGI (HCC-2998 colon) was 40.9 µM, the TGI (SK-MEL-28 melanoma) was 49.3 µM and the TGI (SF-295 CNS) was 34.8 µM. It also gave a TGI (MCF7 breast) of 87.1 µM, a TGI (OVCAR-5 ovarian) of 41.8 µM and a TGI (NCI-H522 lung) of 30.1 µM. It also gave a TGI (SW-620 colon) of 29 µM, a TGI (DU-145 prostate) of 37.2 µM and a TGI (OVCAR-8 ovarian) of 43.4 µM.

In the case of `COc1ccc(-c2c(C#N)c(-c3ccccc3)n(NS(=O)(=O)c3ccccc3)c(=O)c2C#N)cc1`, the TGI (SF-268 CNS) is reported as > 100 µM, the TGI (HL-60(TB) leukemia) is reported as > 100 µM and the TGI (TK-10 renal) is reported as > 100 µM. For the same compound, the TGI (LOX IMVI melanoma) was > 100 µM, the TGI (MOLT-4 leukemia) was 91.2 µM and the TGI (PC-3 prostate) was > 100 µM. The TGI (HS 578T breast) was > 100 µM, the TGI (IGROV1 ovarian) was > 100 µM and the TGI (SK-OV-3 ovarian) was > 100 µM. The TGI (ACHN renal) was > 100 µM, the TGI (HCT-15 colon) was > 100 µM and the TGI (M14 melanoma) was > 100 µM. For the same compound, the TGI (MDA-MB-435) was > 100 µM, the TGI (MALME-3M melanoma) was > 100 µM and the TGI (OVCAR-4 ovarian) was > 100 µM. For the same compound, the TGI (RXF 393 renal) was > 100 µM, the TGI (SK-MEL-5 melanoma) was > 100 µM and the TGI (UACC-257 melanoma) was > 100 µM. For the same compound, the TGI (SK-MEL-2 melanoma) was > 100 µM, the TGI (HOP-92 NSCLC) was > 100 µM and the TGI (CCRF-CEM leukemia) was > 100 µM. The TGI (A549 NSCLC) was > 100 µM, the TGI (HCT-116 colon) was > 100 µM and the TGI (NCI-H226 lung) was > 100 µM. For the same compound, the TGI (SF-539 CNS) was > 100 µM, the TGI (U251 CNS) was > 100 µM and the TGI (HT29 colon) was > 100 µM. For the same compound, the TGI (786-0 renal) was > 100 µM, the TGI (MDA-N) was > 100 µM and the TGI (A498 renal) was > 100 µM. The TGI (MDA-MB-231 breast) was > 100 µM, the TGI (SN12C renal) was > 100 µM and the TGI (COLO 205 colon) was > 100 µM. The TGI (SNB-19 CNS) was > 100 µM, the TGI (K-562 leukemia) was > 100 µM and the TGI (NCI/ADR-RES ovarian) was > 100 µM. For the same compound, the TGI (UACC-62 melanoma) was > 100 µM, the TGI (CAKI-1 renal) was > 100 µM and the TGI (EKVX NSCLC) was > 100 µM. For the same compound, the TGI (KM12 colon) was > 100 µM, the TGI (NCI-H460 lung) was > 100 µM and the TGI (BT-549 breast) was > 100 µM. For the same compound, the TGI (HCC-2998 colon) was > 100 µM, the TGI (SK-MEL-28 melanoma) was > 100 µM and the TGI (SF-295 CNS) was > 100 µM. The TGI (MCF7 breast) was > 100 µM, the TGI (HOP-62 NSCLC) was > 100 µM and the TGI (OVCAR-5 ovarian) was > 100 µM. The TGI (NCI-H522 lung) was 73.7 µM, the TGI (SW-620 colon) was > 100 µM and the TGI (OVCAR-8 ovarian) was > 100 µM. For the same compound, the TGI (SNB-75 CNS) was > 100 µM and the TGI (RPMI-8226 leukemia) was 68.8 µM.
